A word on the Kd: it is the equilibrium constant for the complex coming apart. Low values mean tighter binding, high ones weaker binding.

This passage reports Kd results from patent publication US20240190849A1, “AMINOPYRIMIDINE COMPOUNDS AND METHODS OF THEIR USE” (TYRA BIOSCIENCES, INC., priority 2021, published 2024).

Common to all, as to details: FGFR binding data
One assay has as its target T1, FGFR1 (Homo sapiens, UniProt P11362).
T1 construct: made in house; host or cells: E. coli derived from BL21, infected with T7 phage
Description: Kinase binding assay (kinase-tagged T7 phage, affinity beads, qPCR readout), FGFR1. In a few lines: (§1)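 Dissociation constants were measured by bead-capture competition at 0.9% DMSO, room temperature, 1 hour. qPCR of eluted kinase supplied the signal.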
(In general: Quantitative PCR measures a nucleic acid by following its amplification.)

The target in a further assay is T2, FGFR2 (Homo sapiens, UniProt P21802).
T2 construct: made in house; host or cells: E. coli derived from BL21, infected with T7 phage
T2 sequence (P21802 22-821): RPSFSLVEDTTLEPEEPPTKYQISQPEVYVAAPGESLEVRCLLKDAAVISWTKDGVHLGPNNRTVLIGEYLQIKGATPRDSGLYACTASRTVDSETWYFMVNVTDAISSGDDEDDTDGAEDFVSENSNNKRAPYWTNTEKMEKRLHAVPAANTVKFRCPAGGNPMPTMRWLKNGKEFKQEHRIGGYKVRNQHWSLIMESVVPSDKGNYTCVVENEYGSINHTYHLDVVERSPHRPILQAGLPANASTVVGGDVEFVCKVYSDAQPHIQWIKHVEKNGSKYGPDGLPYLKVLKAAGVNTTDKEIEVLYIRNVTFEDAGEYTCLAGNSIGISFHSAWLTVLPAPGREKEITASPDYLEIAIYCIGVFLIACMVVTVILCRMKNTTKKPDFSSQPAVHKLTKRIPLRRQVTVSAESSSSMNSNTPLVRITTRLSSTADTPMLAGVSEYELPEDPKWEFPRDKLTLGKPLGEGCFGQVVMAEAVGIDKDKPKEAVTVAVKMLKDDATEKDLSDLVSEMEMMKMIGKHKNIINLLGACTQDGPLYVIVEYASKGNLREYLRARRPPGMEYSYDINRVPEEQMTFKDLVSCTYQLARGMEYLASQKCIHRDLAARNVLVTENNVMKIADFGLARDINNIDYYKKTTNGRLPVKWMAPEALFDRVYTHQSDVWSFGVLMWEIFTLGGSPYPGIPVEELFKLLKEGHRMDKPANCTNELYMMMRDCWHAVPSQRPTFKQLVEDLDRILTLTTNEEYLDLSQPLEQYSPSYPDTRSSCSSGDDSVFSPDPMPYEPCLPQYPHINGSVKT
Description: Kinase binding assay (kinase-tagged T7 phage, affinity beads, qPCR readout), FGFR2. The method in brief:
as §1

In another assay the target is T3, FGFR3 (Homo sapiens, UniProt P22607).
T3 construct: made in house; host or cells: E. coli derived from BL21, infected with T7 phage
T3 sequence (P22607 23-806): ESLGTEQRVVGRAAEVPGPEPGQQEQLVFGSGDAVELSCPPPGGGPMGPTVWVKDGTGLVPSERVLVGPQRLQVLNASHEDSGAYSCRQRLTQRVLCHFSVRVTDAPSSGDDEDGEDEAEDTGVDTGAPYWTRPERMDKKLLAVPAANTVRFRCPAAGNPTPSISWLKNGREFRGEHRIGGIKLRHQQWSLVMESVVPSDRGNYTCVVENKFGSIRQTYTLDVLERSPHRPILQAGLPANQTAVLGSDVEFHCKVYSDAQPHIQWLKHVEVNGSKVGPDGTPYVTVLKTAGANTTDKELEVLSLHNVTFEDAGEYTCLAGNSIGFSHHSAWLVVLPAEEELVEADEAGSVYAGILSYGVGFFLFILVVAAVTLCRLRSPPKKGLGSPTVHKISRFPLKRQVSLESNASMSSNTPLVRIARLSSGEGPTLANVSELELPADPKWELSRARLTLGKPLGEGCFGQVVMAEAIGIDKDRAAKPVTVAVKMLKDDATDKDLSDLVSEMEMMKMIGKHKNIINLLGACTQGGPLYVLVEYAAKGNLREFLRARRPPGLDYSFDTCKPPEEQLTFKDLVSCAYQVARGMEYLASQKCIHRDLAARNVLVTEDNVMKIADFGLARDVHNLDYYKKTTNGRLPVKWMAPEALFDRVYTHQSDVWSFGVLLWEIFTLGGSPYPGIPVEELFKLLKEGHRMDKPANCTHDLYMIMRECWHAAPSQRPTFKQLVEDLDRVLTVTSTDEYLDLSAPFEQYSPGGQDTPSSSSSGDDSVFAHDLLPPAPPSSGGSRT
The assay is described as follows: Kinase binding assay (kinase-tagged T7 phage, affinity beads, qPCR readout), FGFR3. In a few lines:
as §1

The target in another assay is T4, FGFR3 (V555M) (Homo sapiens, UniProt P22607, V555M).
T4 construct: made in house; host or cells: E. coli derived from BL21, infected with T7 phage
T4 sequence (P22607 23-806 V555M): as the sequence (P22607 23-806) above, with V533M counted along it
The assay is described as follows: Kinase binding assay (kinase-tagged T7 phage, affinity beads, qPCR readout), FGFR3 (V555M). The method in brief:
as §1

T1 sequence (P11362 22-822): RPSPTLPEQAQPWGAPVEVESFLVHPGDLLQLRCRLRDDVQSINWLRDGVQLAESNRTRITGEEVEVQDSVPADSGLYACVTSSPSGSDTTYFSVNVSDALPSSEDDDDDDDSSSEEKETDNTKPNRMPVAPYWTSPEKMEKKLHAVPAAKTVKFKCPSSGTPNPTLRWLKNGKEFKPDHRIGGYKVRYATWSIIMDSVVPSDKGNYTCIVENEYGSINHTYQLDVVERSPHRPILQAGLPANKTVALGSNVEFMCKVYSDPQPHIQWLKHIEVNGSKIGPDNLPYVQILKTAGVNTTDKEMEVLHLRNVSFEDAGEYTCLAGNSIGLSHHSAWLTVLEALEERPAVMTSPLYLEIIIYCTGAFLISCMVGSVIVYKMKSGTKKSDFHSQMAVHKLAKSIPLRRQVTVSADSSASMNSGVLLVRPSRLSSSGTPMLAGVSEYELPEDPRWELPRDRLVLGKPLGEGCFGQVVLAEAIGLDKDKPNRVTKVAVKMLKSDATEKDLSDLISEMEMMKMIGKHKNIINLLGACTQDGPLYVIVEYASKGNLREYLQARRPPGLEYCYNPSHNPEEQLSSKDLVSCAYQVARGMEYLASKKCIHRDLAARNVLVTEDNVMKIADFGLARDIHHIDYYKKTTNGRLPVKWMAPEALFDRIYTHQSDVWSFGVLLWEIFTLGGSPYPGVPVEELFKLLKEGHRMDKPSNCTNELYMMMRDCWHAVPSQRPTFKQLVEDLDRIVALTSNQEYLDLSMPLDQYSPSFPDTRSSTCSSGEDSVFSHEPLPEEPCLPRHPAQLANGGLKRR

For `C=CC(=O)Nc1ccc2c(c1)c(C)cn2-c1nc(Nc2ccc(N3CCOCC3)nc2)ncc1Cl` [Example 91, N-[1-[5-chloro-2-[(6-morpholino-3-pyridyl)amino]pyrimidin-4-yl]-3-methyl-indol-5-yl]prop-2-enamide], the dissociation constant (Kd) on FGFR1, at FGFR2, on FGFR3 and at FGFR3 (V555M) was 0.1 to 100 nM in each case.

Regarding `C=C(C)C(=O)Nc1ccc2c(c1)c(C)cn2-c1nc(Nc2ccnn2C)ncc1C` [Example 104, 2-methyl-N-[3-methyl-1-[5-methyl-2-[(2-methylpyrazol-3-yl)amino]pyrimidin-4-yl]indol-5-yl]prop-2-enamide], the Kd at FGFR1, at FGFR2, at FGFR3 and on FGFR3 (V555M) was above 1000 nM throughout.

Take `C=CC(=O)Nc1ccc2c(c1)c(C)cn2-c1nc(Nc2ccc(CN3CCN(C)CC3)cc2)ncc1Cl` [Example 65, N-[1-[5-chloro-2-[4-[(4-methylpiperazin-1-yl)methyl]-anilino]pyrimidin-4-yl]-3-methyl-indol-5-yl]prop-2-enamide]: the equilibrium dissociation constant (Kd) at FGFR1, at FGFR2, on FGFR3 and on FGFR3 (V555M) was 0.1 to 100 nM each time.

In the case of `C=CC(=O)Nc1ccc2c(c1)c(C)cn2-c1nc(Nc2cnn(CCOCC)c2)ncc1F` [Example 193], the dissociation constant (Kd) at FGFR1, on FGFR2, on FGFR3 and on FGFR3 (V555M) was 0.1 to 100 nM throughout.

`C=CC(=O)Nc1ccc2c(ccn2-c2nc(Nc3ccc(N4CCOCC4)c(F)c3)ncc2Cl)c1` [Example 16, N-[1-[5-chloro-2-(3-fluoro-4-morpholino-anilino)pyrimidin-4-yl]indol-5-yl]prop-2-enamide]: the dissociation constant Kd was in the range of 250 to 1000 nM on FGFR1, 250 to 1000 nM at FGFR2, 0.1 to 100 nM on FGFR3 and 0.1 to 100 nM at FGFR3 (V555M).

Turning to `C=CC(=O)Nc1ccc2c(-c3ccnc(Nc4cnn(CC5CC5)c4)n3)cn(C)c2c1` [Example 105, N-[3-[2-[[1-(cyclopropylmethyl)pyrazol-4-yl]amino]pyrimidin-4-yl]-1-methyl-indol-6-yl]prop-2-enamide], the Kd on FGFR1, on FGFR2, at FGFR3 and on FGFR3 (V555M) was 0.1 to 100 nM throughout.

Take `C=CC(=O)Nc1ccc2c(-c3nc(Nc4cn(CC)nc4C)ncc3F)cn(C)c2c1` [Example 177, N-[3-[2-[(1-ethyl-3-methyl-pyrazol-4-yl)amino]-5-fluoro-pyrimidin-4-yl]-1-methyl-indol-6-yl]prop-2-enamide]: the dissociation constant Kd was 250 to 1000 nM on FGFR1, 0.1 to 100 nM on FGFR2, 0.1 to 100 nM at FGFR3 and 0.1 to 100 nM at FGFR3 (V555M).

For `C=CC(=O)Nc1ccc2c(c1)c(C)cn2-c1nc(Nc2ccc(CN3CCN(C)CC3)c(F)c2)ncc1Cl` [Example 86, N-[1-[5-chloro-2-[3-fluoro-4-[(4-methylpiperazin-1-yl)methyl]-anilino]pyrimidin-4-yl]-3-methyl-indol-5-yl]prop-2-enamide], the Kd on FGFR1, on FGFR2, at FGFR3 and on FGFR3 (V555M) was 0.1 to 100 nM each time.

Regarding `C=CC(=O)Nc1ccc2c(c1)c(C)cn2-c1ncnc(Nc2cn(C)nc2C)n1` [Example 220, N-[1-[4-[(1,3-dimethylpyrazol-4-yl)amino]-1,3,5-triazin-2-yl]-3-methyl-indol-5-yl]prop-2-enamide], the dissociation constant (Kd) at FGFR1 is 250 to 1000 nM; on FGFR2 it was 250 to 1000 nM; on FGFR3 it was 100 to 250 nM; on FGFR3 (V555M), 100 to 250 nM.

`C=CC(=O)Nc1ccc2c(c1)c(C)cn2-c1nc(Nc2ccc(N3CCOCC3)c(OC)c2)ncc1C` [Example 46, N-[1-[2-(3-methoxy-4-morpholino-anilino)-5-methyl-pyrimidin-4-yl]-3-methyl-indol-5-yl]prop-2-enamide]: the dissociation constant Kd on FGFR1, on FGFR2, at FGFR3 and on FGFR3 (V555M) was 0.1 to 100 nM each time.

With `C=CC(=O)Nc1ccc2c(c1)c(C)cn2-c1nc(Nc2cnn(C[C@@H](C)O)c2C)ncc1F` [Example 216, N-[1-[5-fluoro-2-[[1-[(2R)-2-hydroxypropyl]-5-methyl-pyrazol-4-yl]amino]pyrimidin-4-yl]-3-methyl-indol-5-yl]prop-2-enamide], the Kd at FGFR1, at FGFR2, on FGFR3 and at FGFR3 (V555M) was 0.1 to 100 nM throughout.

Consider `C=CC(=O)Nc1ccc2c(c1)c(C)cn2-c1nc(Nc2cccnc2F)ncc1F` [Example 157, N-[1-[5-fluoro-2-[(2-fluoro-3-pyridyl)amino]pyrimidin-4-yl]-3-methyl-indol-5-yl]prop-2-enamide], for which the dissociation constant (Kd) on FGFR1 lay within 250 to 1000 nM; on FGFR2 it was 0.1 to 100 nM; on FGFR3 it was 0.1 to 100 nM; at FGFR3 (V555M) it was 0.1 to 100 nM.

On to `C=CC(=O)Nc1ccc2c(c1)c(C)c(C)n2-c1nc(Nc2cnn(C)c2)ncc1F` [Example 226, N-[1-[5-fluoro-2-[(1-methylpyrazol-4-yl)amino]pyrimidin-4-yl]-2,3-dimethyl-indol-5-yl]prop-2-enamide], for which the dissociation constant (Kd) on FGFR1, at FGFR2, on FGFR3 and on FGFR3 (V555M) was 0.1 to 100 nM each time.

As to `C=C(C)C(=O)Nc1cnc2c(c1)c(C)cn2-c1nc(Nc2ccn(C)n2)ncc1C` [Example 118, 2-methyl-N-[3-methyl-1-[5-methyl-2-[(1-methylpyrazol-3-yl)amino]pyrimidin-4-yl]pyrrolo[2,3-b]pyridin-5-yl]prop-2-enamide], the dissociation constant Kd on FGFR1, on FGFR2, at FGFR3 and on FGFR3 (V555M) was above 1000 nM throughout.

Regarding `C=CC(=O)Nc1ccc2c(c1)cc(C)n2-c1nc(Nc2cnn(C)c2)ncc1F` [Example 227, N-[1-[5-fluoro-2-[(1-methylpyrazol-4-yl)amino]pyrimidin-4-yl]-2-methyl-indol-5-yl]prop-2-enamide], the equilibrium dissociation constant (Kd) was 100 to 250 nM on FGFR1, 0.1 to 100 nM on FGFR2, 0.1 to 100 nM at FGFR3 and 0.1 to 100 nM on FGFR3 (V555M).

For `C=CC(=O)Nc1ccc2c(c1)c(C)cn2-c1ncnc(Nc2cnn(C)c2)n1` [Example 218, N-[3-methyl-1-[4-[(1-methylpyrazol-4-yl)amino]-1,3,5-triazin-2-yl]indol-5-yl]prop-2-enamide], the Kd at FGFR1, at FGFR2, at FGFR3 and on FGFR3 (V555M) was 0.1 to 100 nM throughout.

Regarding `C=CC(=O)Nc1ccc2c(c1)c(C)cn2-c1nc(Nc2ccc(CN3CCOCC3)c(C)c2)ncc1Cl` [Example 66, N-[1-[5-chloro-2-[3-methyl-4-(morpholinomethyl)anilino]pyrimidin-4-yl]-3-methyl-indol-5-yl]prop-2-enamide], the Kd at FGFR1, on FGFR2, at FGFR3 and on FGFR3 (V555M) was 0.1 to 100 nM throughout.

In the case of `C=C(F)C(=O)Nc1ccc2c(c1)c(C)cn2-c1nc(Nc2ccnn2C)ncc1C` [Example 110, 2-fluoro-N-[3-methyl-1-[5-methyl-2-[(2-methylpyrazol-3-yl)amino]pyrimidin-4-yl]indol-5-yl]prop-2-enamide], the Kd is above 1000 nM on FGFR1, above 1000 nM at FGFR2, above 1000 nM at FGFR3 and 250 to 1000 nM at FGFR3 (V555M).

For the compound `C=CC(=O)Nc1ccc2c(c1)c(C)cn2-c1nc(Nc2c(C)cccc2OCC)ncc1Cl` [Example 29, N-[1-[5-chloro-2-(2-ethoxy-6-methyl-anilino)pyrimidin-4-yl]-3-methyl-indol-5-yl]prop-2-enamide], the Kd at FGFR1, at FGFR2, on FGFR3 and on FGFR3 (V555M) was above 1000 nM in each case.

Consider `C=CC(=O)Nc1ccc2c(-c3nc(Nc4ccc(OC)c(OC)c4)ncc3Cl)cn(C)c2c1` [Example 31, N-[3-[5-chloro-2-(3,4-dimethoxyanilino)pyrimidin-4-yl]-1-methyl-indol-6-yl]prop-2-enamide], for which the equilibrium dissociation constant (Kd) at FGFR1, on FGFR2, at FGFR3 and on FGFR3 (V555M) was 0.1 to 100 nM each time.

`C=CC(=O)Nc1ccc2c(-c3ccnc(Nc4cn(C)nc4C)n3)cn(C)c2c1` [Example 172, N-[3-[2-[(1,3-dimethylpyrazol-4-yl)amino]pyrimidin-4-yl]-1-methyl-indol-6-yl]prop-2-enamide]: the dissociation constant (Kd) lay within 250 to 1000 nM on FGFR1, 0.1 to 100 nM at FGFR2, 0.1 to 100 nM at FGFR3 and 0.1 to 100 nM on FGFR3 (V555M).

Turning to `C=CC(=O)Nc1ccc2c(-c3ccnc(Nc4cn(CC)nc4C)n3)cn(C)c2c1` [Example 173, N-[3-[2-[(1-ethyl-3-methyl-pyrazol-4-yl)amino]pyrimidin-4-yl]-1-methyl-indol-6-yl]prop-2-enamide], the Kd on FGFR1 was 250 to 1000 nM; on FGFR2, 100 to 250 nM; at FGFR3 it was 0.1 to 100 nM; on FGFR3 (V555M) it was 0.1 to 100 nM.

For the compound `C=CC(=O)Nc1ccc2c(c1)c(C)nn2-c1ccnc(Nc2ccnn2C)n1` [Example 87, N-[3-methyl-1-[2-[(2-methylpyrazol-3-yl)amino]pyrimidin-4-yl]indazol-5-yl]prop-2-enamide], the equilibrium dissociation constant (Kd) at FGFR1, on FGFR2, on FGFR3 and on FGFR3 (V555M) was above 1000 nM in each case.

On to `C=CC(=O)Nc1ccc2c(ccn2-c2nc(Nc3ccc(OCCN4CCOCC4)cc3)ncc2Cl)c1C` [Example 21, N-[1-[5-chloro-2-[4-(2-morpholinoethoxy)anilino]pyrimidin-4-yl]-4-methyl-indol-5-yl]prop-2-enamide], for which the equilibrium dissociation constant (Kd) at FGFR1 lay in the range of 250 to 1000 nM; on FGFR2 it was 0.1 to 100 nM; on FGFR3 it was 100 to 250 nM; at FGFR3 (V555M) it was 0.1 to 100 nM.
